Measured values taken from patent publication US4721775A, “Effective peptides related to the luteinizing hormone releasing hormone from L-amino acids” (Board of Regents, The University of Texas System, priority 1985, dated 1988).
Non-standard residues stand in square brackets, D forms with d. Residues, ends and D or L forms follow the SMILES beside them. pGlu = O=C1CC[C@@H](C(=O)O)N1

Experiments:
Assay type in all cases: in vivo
[1] = system: release of LH; assay: Release of LH in rats after sc injection; conditions: for LH % change: LHRH = 100
From the text: (§1) The data on the release of LH and FSH in rats by modifications of LHRH with one structural change are in Table II.
(§2) Exclusive of the salmon-LHRH, only one of the six decapeptides with two structural changes had significant activity.

[2] = system: release of FSH; assay: Release of FSH in rats after sc injection; conditions: for FSH % change: LHRH = 100
From the text: as §1, §2

[3] = system: release of FSH; assay: Release of FSH in rats after sc injection; conditions: dose and time as stated in the source
[4] = 15 min. after sc injection, 100 ng
[5] = 15 min. after sc injection, 1000 ng
[6] = 60 min. after sc injection, 300 ng
[7] = 60 min. after sc injection, 3000 ng
[8] = release 15 min. after sc injection, dosage of peptide 100 ng
[9] = release 15 min. after sc injection, dosage of peptide 1000 ng
[10] = release 60 min. after sc injection, dosage of peptide 300 ng
[11] = release 60 min. after sc injection, dosage of peptide 3000 ng
[12] = 30 min. after sc injection, 1000 ng
[13] = release 30 min. after sc injection, dosage of peptide 50 ng
[14] = release 30 min. after sc injection, dosage of peptide 1000 ng
[15] = sc injection, dose and time as stated in the source

| SMILES | LH % change [1, 4] [%] | LH % change [1, 5] [%] | LH % change [1, 6] [%] | LH % change [1, 7] [%] | LH [1, 8] [ng/mL] | LH [1, 9] [ng/mL] | LH [1, 10] [ng/mL] | LH [1, 11] [ng/mL] | FSH % change [2, 6] [%] | FSH % change [2, 7] [%] | FSH [2, 8] [ng/mL] | FSH [2, 9] [ng/mL] | FSH [2, 10] [ng/mL] | FSH [2, 11] [ng/mL] | other results |
| --- | --- | --- | --- | --- | --- | --- | --- | --- | --- | --- | --- | --- | --- | --- | --- |
| CC(C)C[C@H](NC(=O)CNC(=O)[C@H](Cc1c[nH]cn1)NC(=O)[C@H](CO)NC(=O)[C@H](Cc1c[nH]c2ccccc12)NC(=O)[C@H](Cc1c[nH]cn1)NC(=O)[C@@H]1CCC(=O)N1)C(=O)N[C@@H](CCC(N)=O)C(=O)N1CCC[C@H]1C(=O)NCC(N)=O [[His^5 Gln^8]--LHRH, p-Glu His Trp Ser His Gly Leu Gln Pro Gly-NH2] ([pGlu]HWSHGLQPG-NH2) | 29 | 47 | 30 | 8.3 | 7 | 27 | 3.3 | 6.8 | 48 | 39 | 343 | 416 | 283 | 456 | – |
| CC(C)C[C@H](NC(=O)CNC(=O)[C@H](Cc1c[nH]cn1)NC(=O)[C@H](CO)NC(=O)[C@H](Cc1c[nH]c2ccccc12)NC(=O)[C@H](Cc1c[nH]cn1)NC(=O)[C@@H]1CCC(=O)N1)C(=O)N[C@@H](CC(C)C)C(=O)N1CCC[C@H]1C(=O)NCC(N)=O [[His^5 Leu^8]--LHRH, p-Glu His Trp Ser His Gly Leu Leu Pro Gly-NH2] ([pGlu]HWSHGLLPG-NH2) | 0.8 | 5 | 20 | 2.2 | 0.2 | 3.3 | 2.2 | 1.8 | 44 | 18 | 202 | 276 | 261 | 205 | FSH % change [2, 4]: 43%; FSH % change [2, 5]: 57% |
| CC(C)C[C@H](NC(=O)[C@H](Cc1c[nH]c2ccccc12)NC(=O)CNC(=O)[C@H](Cc1c[nH]cn1)NC(=O)[C@H](CO)NC(=O)[C@H](Cc1c[nH]c2ccccc12)NC(=O)[C@H](Cc1c[nH]cn1)NC(=O)[C@@H]1CCC(=O)N1)C(=O)N1CCC[C@H]1C(=O)NCC(N)=O [[His^5 Trp^7 Leu^8]--LHRH, p-Glu His Trp Ser His Gly Trp Leu Pro Gly-NH2] ([pGlu]HWSHGWLPG-NH2) | 38 | 40 | 23 | 6 | 9 | 23 | 2.5 | 5 | 62 | 32 | 383 | 445 | 369 | 376 | LH released, % of the LH released by LHRH ([1]; levels of 100 and 1000 ng): up to 50%; release of FSH compared with LHRH [3]: equivalent in activity to LHRH; release of FSH compared with LHRH ([3]; Trp^7 Leu^8 ]-LHRH): released as much FSH as LHRH |
| CC(C)C[C@H](NC(=O)CNC(=O)[C@H](Cc1c[nH]cn1)NC(=O)[C@H](CO)NC(=O)[C@H](Cc1c[nH]c2ccccc12)NC(=O)[C@H](Cc1c[nH]cn1)NC(=O)[C@@H]1CCC(=O)N1)C(=O)N[C@@H](Cc1ccc(O)cc1)C(=O)N1CCC[C@H]1C(=O)NCC(N)=O [[His^5 Tyr^8]--LHRH, p-Glu His Trp Ser His Gly Leu Tyr Pro Gly-NH2] ([pGlu]HWSHGLYPG-NH2) | – | – | – | 3.4 | – | – | – | 2.8 | – | 42 | – | – | – | 495 | LH % change ([1]; 30 min. after sc injection, 50 ng): 3%; LH % change [1, 12]: 4%; LH [1, 13]: 0.5 ng/mL; LH [1, 14]: 5.0 ng/mL; FSH % change [2, 12]: 3%; FSH [2, 13]: 235 ng/mL; FSH [2, 14]: 534 ng/mL |
| NC(=O)CC[C@H](NC(=O)[C@H](Cc1c[nH]c2ccccc12)NC(=O)CNC(=O)[C@H](Cc1ccc(O)cc1)NC(=O)[C@H](CO)NC(=O)[C@H](Cc1c[nH]c2ccccc12)NC(=O)[C@H](Cc1c[nH]cn1)NC(=O)[C@@H]1CCC(=O)N1)C(=O)N1CCC[C@H]1C(=O)NCC(N)=O [[Trp^7 Gln^8]--LHRH, p-Glu His Trp Ser Tyr Gly Trp Gln Pro Gly-NH2] ([pGlu]HWSYGWQPG-NH2) | 29 | 60 | 29 | 9.1 | 7 | 34 | 3.2 | 7.5 | 58 | 40 | 421 | 502 | 345 | 474 | – |
| NC(=O)CNC(=O)[C@@H]1CCCN1C(=O)[C@H](Cc1ccc(O)cc1)NC(=O)[C@H](Cc1c[nH]c2ccccc12)NC(=O)CNC(=O)[C@H](Cc1ccc(O)cc1)NC(=O)[C@H](CO)NC(=O)[C@H](Cc1c[nH]c2ccccc12)NC(=O)[C@H](Cc1c[nH]cn1)NC(=O)[C@@H]1CCC(=O)N1 [[Trp^7 Tyr^8]--LHRH, p-Glu His Trp Ser Tyr Gly Trp Tyr Pro Gly-NH2] ([pGlu]HWSYGWYPG-NH2) | – | – | 25 | 4.6 | – | – | 2.8 | 3.8 | 35 | 30 | – | – | 209 | 352 | – |
| CC(C)C[C@H](NC(=O)CNC(=O)[C@H](Cc1ccc(O)cc1)NC(=O)[C@H](CO)NC(=O)[C@H](Cc1c[nH]c2ccccc12)NC(=O)[C@H](Cc1c[nH]cn1)NC(=O)[C@@H]1CCC(=O)N1)C(=O)N[C@@H](Cc1ccc(O)cc1)C(=O)N1CCC[C@H]1C(=O)NCC(N)=O [[Tyr^8]--LHRH, p-Glu His Trp Ser Tyr Gly Leu Tyr Pro Gly-NH2] | – | – | 23 | 3 | – | – | 2.5 | 2.7 | 48 | 38 | – | – | 285 | 449 | release of LH compared with LHRH [1, 15]: relatively low activities; release of FSH compared with LHRH [2, 15]: relatively low activities |
